Test results published in patent US20240059695A1, “SUBSTITUTED IMIDAZO[1,5-b]PYRIDAZINE COMPOUNDS AS KINASE INHIBITORS AND USE THEREOF” (IMPACT THERAPEUTICS (SHANGHAI), INC, priority 2020, published 2024).

Columns and labels:
[1] = system: human non-small cell lung cancer A549 cell; assay: MTT proliferation assay of Example 1, A549; type: cell-based; details: A549, 96 h, 4 days
Procedure: (§1) The cells were digested by trypsinase and centrifuged at 800 rpm for 5 minutes, the supernatant was discarded, and the residual was resuspended with fresh medium (1640 medium+10% FRS) and counted. The cells were seeded into 96well cell culture plate with a density of 2000/4000 cells per well and incubated overnight in a 5% CO2 incubator at 37° C. The stock solutions of the test substances were serially diluted to 8 concentrations by DMSO at the ratios of 1:3 and 1:10, respectively. 5 μL diluent of each concentration was added to […] (25 times diluted) and mixed by shaking. The overnight cell plates were taken and the culture medium was removed, 195 μL of fresh medium was added to each well, and 5 μL of diluted medium containing the corresponding concentration of the test compound was added respectively (the final concentration of DMSO is 1%), and the culture plate was then placed in a 5% CO2 incubator at 37° C for 4 days. After removing the original solution, […] of fresh serum-free DMEM medium containing MTT (0.5 mg/mL) was added to each well, the culture was continued. After 4 hours, the original solution was removed, 100 μL, of DMSO was added to each well, the 96-well plates were shaken for 10 minutes in the dark and placed in a multi-function reader to read the absorbance at the wavelength of 552/690 nm. […]

[2] = Pharmacokinetics following single oral administration to mice; type: in vivo; details: mouse, CD-1 (ICR) mice, gavage 10 mg/kg, 0.5% methylcellulose/water suspension, plasma
Procedure: The compound of the present invention was formulated into a 0.5% methylcellulose/water uniform suspension, and was administered to CD-1 (ICR) mice by gavage at 10 mg/kg. Plasma samples were collected at 8 time points of 0.250, 0.500, 1.00, 2.00, 4.00, 6.00, 8.00 and 24.0 hours post-dose. Concentrations of the compound were determined by LC-MS/MS method.

ATR/ATRIP enzyme = molecular target: T1, ATR/ATRIP enzyme (Homo sapiens, UniProt Q13535); assay: ATR enzyme activity experiment (HTRF); type: biochemical; details: p53 substrate, 30 min room temperature, read-out: IC50 (nM), inhibitory effect on ATR kinase activity
T1 construct: purchased Eurofins 14-953
Procedure: The mixture was centrifuged at 1000 rpm for 1 minute, and reacted at room temperature protected from light for 30 minutes. Then 5 μL of EDTA stop solution (250 mM) was added to stop the reaction.

[3] = system: human breast cancer HCC1806 cell; assay: MTT proliferation assay of Example 1, HCC1806; type: cell-based; details: HCC1806, 96 h, 4 days
Procedure: as §1

[4] = system: human ovarian cancer OVCAR-3 cell; assay: Synergistic inhibition of Example 1 in combination with senaparib, MTT assay; type: cell-based; details: for Combination Index (CI): OVCAR-3, 3 days
Procedure: The cells were digested by trypsinase and centrifuged at 800 rpm for 5 minutes, the supernatant was discarded, and the residual was resuspended with fresh medium (1640 medium+10% FBS) and counted. The cells were seeded into 96-well cell culture plate with an appropriate density and incubated overnight in a 5% CO2 incubator at 37° C. The stock solutions of the test substances were serially diluted to 4-5 concentrations by DMSO at the ratios of 1:3, respectively. 5 µL diluent of each concentration was added to 120 μL of medium (25 times diluted) and mixed by shaking. The overnight cell plates were taken and the culture medium was removed, […] of fresh medium was added to each well, and 5 μL of diluted compound or 5 μL of medium containing DMSO was added respectively (the final concentration of DMSO is 1%), and the culture plate was then placed in a 5% CO2 incubator at 37° C. for 3 days. After removing the original solution, 100 μL of fresh serum-free DMEM medium containing MTT (0.5 mg/mL) was added to each well, the culture was continued. After 4 hours, the original solution was removed, 100 μL of DMSO was added to each well, the 96-well plates were shaken for 10 minutes in the dark and placed in a multi-function reader to read the absorbance at the wavelength of 552/690 nm. Cell viability (%)=(ODcompound−ODbackground)/(ODDMSO−ODbackground)×100. The combination index (CI) was calculated with the software CalcuSyn.

T1 sequence (Q13535 whole entry): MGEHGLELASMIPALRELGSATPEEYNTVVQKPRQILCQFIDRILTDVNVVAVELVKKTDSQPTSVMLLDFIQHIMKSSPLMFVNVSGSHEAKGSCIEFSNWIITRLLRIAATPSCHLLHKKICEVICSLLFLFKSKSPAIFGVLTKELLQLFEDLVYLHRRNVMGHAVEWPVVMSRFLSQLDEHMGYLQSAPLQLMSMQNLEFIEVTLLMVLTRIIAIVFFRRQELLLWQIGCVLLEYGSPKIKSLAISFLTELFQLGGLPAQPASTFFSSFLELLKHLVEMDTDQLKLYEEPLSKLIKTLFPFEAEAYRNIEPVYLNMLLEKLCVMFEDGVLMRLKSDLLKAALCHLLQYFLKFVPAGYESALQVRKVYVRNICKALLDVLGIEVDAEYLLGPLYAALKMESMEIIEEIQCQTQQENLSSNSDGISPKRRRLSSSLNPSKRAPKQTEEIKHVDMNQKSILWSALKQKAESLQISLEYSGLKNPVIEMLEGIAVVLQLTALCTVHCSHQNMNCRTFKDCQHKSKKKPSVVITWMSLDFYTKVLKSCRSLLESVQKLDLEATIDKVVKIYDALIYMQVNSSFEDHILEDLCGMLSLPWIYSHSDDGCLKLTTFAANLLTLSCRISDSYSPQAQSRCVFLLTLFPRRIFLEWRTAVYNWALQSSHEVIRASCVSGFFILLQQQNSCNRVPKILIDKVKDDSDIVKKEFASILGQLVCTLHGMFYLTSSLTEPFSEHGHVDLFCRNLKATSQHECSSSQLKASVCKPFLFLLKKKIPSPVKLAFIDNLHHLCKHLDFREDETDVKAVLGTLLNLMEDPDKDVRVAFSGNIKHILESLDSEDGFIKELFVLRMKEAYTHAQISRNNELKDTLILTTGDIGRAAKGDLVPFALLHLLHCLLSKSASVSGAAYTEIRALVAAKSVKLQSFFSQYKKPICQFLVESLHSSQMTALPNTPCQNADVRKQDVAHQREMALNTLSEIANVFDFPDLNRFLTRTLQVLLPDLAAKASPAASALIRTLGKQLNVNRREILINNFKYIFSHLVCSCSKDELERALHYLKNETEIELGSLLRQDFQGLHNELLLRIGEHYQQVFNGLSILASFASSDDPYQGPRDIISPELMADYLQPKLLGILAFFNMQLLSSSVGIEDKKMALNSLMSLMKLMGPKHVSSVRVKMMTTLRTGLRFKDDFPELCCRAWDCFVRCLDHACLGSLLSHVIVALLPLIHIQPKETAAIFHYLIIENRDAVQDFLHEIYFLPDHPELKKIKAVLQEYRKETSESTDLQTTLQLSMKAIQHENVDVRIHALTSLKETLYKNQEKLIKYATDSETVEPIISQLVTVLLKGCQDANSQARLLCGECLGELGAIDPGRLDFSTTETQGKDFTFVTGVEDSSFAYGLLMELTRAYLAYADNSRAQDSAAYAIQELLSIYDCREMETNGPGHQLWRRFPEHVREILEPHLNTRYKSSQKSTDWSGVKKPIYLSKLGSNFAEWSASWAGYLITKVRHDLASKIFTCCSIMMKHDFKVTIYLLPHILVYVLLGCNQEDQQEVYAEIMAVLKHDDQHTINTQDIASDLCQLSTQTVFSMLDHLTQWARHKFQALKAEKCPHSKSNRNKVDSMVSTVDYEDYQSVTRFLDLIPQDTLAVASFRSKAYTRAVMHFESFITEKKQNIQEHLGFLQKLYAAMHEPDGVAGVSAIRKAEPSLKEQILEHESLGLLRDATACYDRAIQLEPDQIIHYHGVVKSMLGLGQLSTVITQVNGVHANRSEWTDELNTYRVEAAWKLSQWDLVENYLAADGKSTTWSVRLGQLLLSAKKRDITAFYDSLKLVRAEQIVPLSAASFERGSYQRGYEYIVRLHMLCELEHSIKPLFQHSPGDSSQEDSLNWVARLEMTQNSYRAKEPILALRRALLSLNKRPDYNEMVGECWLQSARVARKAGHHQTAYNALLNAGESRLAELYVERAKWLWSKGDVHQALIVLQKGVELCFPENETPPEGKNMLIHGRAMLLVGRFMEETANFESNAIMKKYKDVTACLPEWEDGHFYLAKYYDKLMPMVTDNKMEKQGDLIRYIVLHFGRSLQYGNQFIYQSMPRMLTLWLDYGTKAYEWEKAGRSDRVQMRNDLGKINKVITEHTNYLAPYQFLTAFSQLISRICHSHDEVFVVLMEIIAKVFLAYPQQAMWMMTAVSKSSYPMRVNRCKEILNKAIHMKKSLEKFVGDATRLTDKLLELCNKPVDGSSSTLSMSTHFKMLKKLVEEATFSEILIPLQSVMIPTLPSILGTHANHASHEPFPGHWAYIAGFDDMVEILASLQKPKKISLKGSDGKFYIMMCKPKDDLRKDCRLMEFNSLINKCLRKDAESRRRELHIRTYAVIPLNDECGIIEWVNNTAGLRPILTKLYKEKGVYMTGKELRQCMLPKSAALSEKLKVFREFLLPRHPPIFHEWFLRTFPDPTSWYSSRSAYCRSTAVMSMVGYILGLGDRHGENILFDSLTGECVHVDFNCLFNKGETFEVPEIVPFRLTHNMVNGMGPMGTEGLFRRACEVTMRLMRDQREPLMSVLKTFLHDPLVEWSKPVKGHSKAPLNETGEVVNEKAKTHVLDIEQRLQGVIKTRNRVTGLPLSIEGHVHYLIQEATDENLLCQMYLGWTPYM
T1 sequence (Q8WXE1 whole entry partner): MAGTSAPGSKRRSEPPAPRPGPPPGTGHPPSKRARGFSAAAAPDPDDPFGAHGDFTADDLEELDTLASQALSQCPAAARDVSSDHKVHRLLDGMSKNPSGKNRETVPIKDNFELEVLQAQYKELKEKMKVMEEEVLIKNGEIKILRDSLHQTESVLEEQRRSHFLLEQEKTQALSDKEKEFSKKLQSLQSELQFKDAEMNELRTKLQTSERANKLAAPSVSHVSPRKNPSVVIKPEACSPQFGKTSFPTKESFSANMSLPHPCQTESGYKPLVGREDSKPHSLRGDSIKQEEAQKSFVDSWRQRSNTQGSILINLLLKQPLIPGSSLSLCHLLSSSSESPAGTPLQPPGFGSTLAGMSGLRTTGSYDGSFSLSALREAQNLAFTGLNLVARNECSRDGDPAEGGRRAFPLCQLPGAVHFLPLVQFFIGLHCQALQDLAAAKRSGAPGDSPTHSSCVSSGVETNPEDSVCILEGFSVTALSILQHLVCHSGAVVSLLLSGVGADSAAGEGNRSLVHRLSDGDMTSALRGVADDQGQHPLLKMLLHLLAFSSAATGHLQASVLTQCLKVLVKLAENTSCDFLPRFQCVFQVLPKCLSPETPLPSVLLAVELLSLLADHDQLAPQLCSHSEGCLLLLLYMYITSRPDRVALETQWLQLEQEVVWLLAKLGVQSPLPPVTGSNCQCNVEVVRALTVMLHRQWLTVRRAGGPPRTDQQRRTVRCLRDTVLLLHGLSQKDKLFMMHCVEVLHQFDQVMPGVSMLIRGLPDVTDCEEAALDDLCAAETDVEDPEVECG

Compound `Cc1nc(-c2ccn[nH]2)n2nc(N3CCOC[C@H]3C)cc(-c3ccnn3C)c12` [Example 1, (R)-3-methyl-4-(5-methyl-4-(1-methyl-1H-pyrazol-5-yl)-7-(1H-pyrazol-5-yl)imidazo[1,5-b]pyridazin-2-yl)morpholine] has an IC50 [1] of 157 nM, an AUC(0-inf) [2] of 98500 ng·h/mL and an AUC(0-t) [2] of 98500 ng·h/mL. For the same compound, the Cmax [2] was 9340 ng/mL, the half-life [2] was 98.4 min and the IC50 (ATR/ATRIP enzyme) was 1 nM. The IC50 [3] was 38.8 nM, the “Combination Index (CI)” value ([4]; 11 nM Example 1 + 37 nM senaparib) was 1.157 and the “Combination Index (CI)” value ([4]; 11 nM Example 1 + 111 nM senaparib) was 0.215. The “Combination Index (CI)” value ([4]; 11 nM Example 1 + 333 nM senaparib) was 0.069, the “Combination Index (CI)” value ([4]; 11 nM Example 1 + 1000 nM senaparib) was 0.052 and the “Combination Index (CI)” value ([4]; 11 nM Example 1 + 3000 nM senaparib) was 0.044. For the same compound, the “Combination Index (CI)” value ([4]; 33 nM Example 1 + 37 nM senaparib) was 0.275, the “Combination Index (CI)” value ([4]; 33 nM Example 1 + 111 nM senaparib) was 0.213 and the “Combination Index (CI)” value ([4]; 33 nM Example 1 + 333 nM senaparib) was 0.18. For the same compound, the “Combination Index (CI)” value ([4]; 33 nM Example 1 + 1000 nM senaparib) was 0.148, the “Combination Index (CI)” value ([4]; 33 nM Example 1 + 3000 nM senaparib) was 0.12 and the “Combination Index (CI)” value ([4]; 100 nM Example 1 + 37 nM senaparib) was 0.603. The “Combination Index (CI)” value ([4]; 100 nM Example 1 + 111 nM senaparib) was 0.544, the “Combination Index (CI)” value ([4]; 100 nM Example 1 + 333 nM senaparib) was 0.488 and the “Combination Index (CI)” value ([4]; 100 nM Example 1 + 1000 nM senaparib) was 0.424. For the same compound, the “Combination Index (CI)” value ([4]; 100 nM Example 1 + 3000 nM senaparib) was 0.364, the “Combination Index (CI)” value ([4]; 300 nM Example 1 + 37 nM senaparib) was 1.588 and the “Combination Index (CI)” value ([4]; 300 nM Example 1 + 111 nM senaparib) was 1.471. For the same compound, the “Combination Index (CI)” value ([4]; 300 nM Example 1 + 333 nM senaparib) was 1.377, the “Combination Index (CI)” value ([4]; 300 nM Example 1 + 1000 nM senaparib) was 1.276 and the “Combination Index (CI)” value ([4]; 300 nM Example 1 + 3000 nM senaparib) was 1.195. For the same compound, the “synergistic effect on inhibiting the proliferation of OVCAR-3 cells (in words)” value ([4]; combination of Example 1 and senaparib) was “good synergistic effect”.
